In patent publication US5885994A, “Tetrahydroquinoxaline dopamine D4 receptor antagonists” (Warner-Lambert Company, priority 1998, dated 1999):

Columns and labels:
[1] = system: amphetamine-stimulated locomotion; assay: Blockade of amphetamine-stimulated locomotion in rats; type: in vivo, rat
Excerpt: PROTOCOL FOR THE BLOCKADE OF AMPHETAMINE-STIMULATED LOCOMOTION IN RATS
The blockade of amphetamine-stimulated locomotion procedure is a modification of the Locomotor Activity Protocol in the Omnitech Digiscan Activity Monitors described above. The blockade of amphetamine-stimulated locomotion procedure uses the central nervous system stimulant d-amphetamine to assess antipsychotic activity of dopaminergic agents.
Male Sprague-Dawley rats (Harlan Labs) were used for these studies. Drugs were dissolved in saline or water, and administered either orally (PO) or intraperitoneally (IP) in volumes of 5 mL/kg. Saline control rats and amphetamine (0.5 mg/kg IP) control rats are included with each study (n=4-6 rats per treatment group). For the IP studies, amphetamine is given 20 minutes prior to the drug, after which a 30 minute locomotor activity test is conducted. For the oral study, drug is dosed 30 minutes prior to the test, while amphetamine is given 15 minutes prior to the test, which allows time for oral absorption. Locomotor activity (centimeters travelled per 30 minute test) is measured in 16"×16" open chambers. Amphetamine generally produces a 2- to 3-fold increase in locomotion over saline controls. Drug effects are reported as percent reversal of amphetamine-stimulated locomotion. Significant changes in amphetamine-stimulated locomotion, relative to amphetamine treated controls, were determined by t-test. The dose which would reverse amphetamine-stimulated locomotion by 50% (ED50) and the 95% confidence limits were estimated by regression analysis.

[2] = target: human D2 receptor (Homo sapiens, UniProt P14416); assay: Inhibition of [3H]spiperone binding to human dopamine D2 receptors; conditions: human D2 (Long form), CHO K1 membranes
Excerpt: A cell line expressing human dopamine D2 (Long form) receptors was purchased from Oregon Health Sciences University, Portland, Oreg. The D2 receptor cDNA was subcloned into an expression vector, pRc/CMV. The plasmids were transfected by electroporation into CHO K1 cells. A single stable transfectant, resistant to the antibiotic 418, was isolated and selected for use in the binding studies. For D4 binding, CHO K1 cells stably transfected to express the human recombinant dopamine D4.2 receptor subtype, as described by Shih, et al., "The expression and functional characterization of human dopamine D4.2 receptor in CHO K1 cells," Soc. Neurosci., 1995;21(Part 1):621.
CHO K1 cells expressing either human D2 and D4.2 receptors were grown in 162 cm^2 culture flasks in F12 medium (Gibco Laboratories, Grand Island, N.Y.) supplemented with 10% fetal bovine serum (FBS, Hyclone, Logan, Utah) in an atmosphere of 5% CO2 /95% air at 37° C. Cells were grown until confluent, after which growth medium was removed and replaced with 0.02% ethylene diamine tetracetate (EDTA) in a phosphate-buffered saline solution (Sigma Chemical Co., St. Louis, Mo.) and scraped from the flasks. The cells were centrifuged at about 1000×g for 10 minutes at […] and then resuspended in TEM buffer (25 mM Tris-HCl, pH 7.4, 5 mM EDTA, and 6 mM MgCl2) for D2 or the D4.2 buffer (50 mM Tris-HCl, pH 7.4, 5 mM EDTA, 1.5 mM CaCl2, 5 mM KCl, and 120 mM NaCl) and homogenized. The membranes were pelleted by centrifugation at 20,000×g at […] for 20 minutes. Then the pellets were resuspended in appropriate buffer at 1 mL/flask and stored at -70° C. until used in the receptor binding assay.
Receptor Binding Assays: D2,D4.2 Dopamine Receptors
After 60 minutes incubation at 25° C., the incubations were terminated by rapid filtration through Whatmann F/B lass fibre filters (soaked for 1 hour in 0.5% polyethylenimine) on a cell harvester, with three washes of 1 mL ice-cold buffer. Individual filter disks containing the bound ligand were placed in counting vials with 4 mL of scintillation fluid (Ready Gel, Beckman Instrument Inc., Fullerton, Calif.) and then counted in a Beckman LS-6800 liquid scintillation counter at an efficiency of 45%. Nonspecific binding was defined in presence of 1 mM of haloperidol.
Saturation and competition binding data were analyzed using an iterative nonlinear least-square curve-fitting Ligand program. In competition experiments, apparent Ki values were calculated from IC50 values by method of Cheng and Prusoff, "Relationship between the inhibition constant (Ki) and the concentration of inhibitor which causes 50% inhibition (IC50) of an enzymatic reaction," Biochem. Pharmacol., 1973;22:3099-3108. Experimental compounds were made up as stock solutions in dimethyl sulfoxide (DMSO). […] Each observation was carried out in triplicate. To allow these calculations, Ki values were measured for the interaction of various ligands with the receptor. […]

[3] = system: synthesis rates of rat brain catecholamines; conditions: ip
Method: The effects of compounds on synthesis rates of rat brain catecholamines were estimated by measuring the accumulation of [3-(3,4-dihydroxyphenyl)-L-alanine (DOPA) after administration of the L-aromatic amino acid decarboxylase inhibitor, NSD 1015 (Pugsley, et al., 1995).
Test compounds were administered to rats i.p. 30 minutes before the injection of the L-aromatic amino acid decarboxylase inhibitor, NSD 1015 (100 mg/kg i.p.). Rats were sacrificed by decapitation 30 minutes later. The striatum and mesolimbic regions were rapidly dissected from the brains and stored at -70° C. until assayed. Synthesis rates of rat brain catecholamines were estimated by measuring the accumulation of the DA precursor DOPA after NSD 1015 administration by HPLC with electrochemical detection (Puglsey, et al., 1995). Each value represents the mean of four determinations and is expressed as a percent of the control values.

Chain of human D2 receptor (P14416 whole entry): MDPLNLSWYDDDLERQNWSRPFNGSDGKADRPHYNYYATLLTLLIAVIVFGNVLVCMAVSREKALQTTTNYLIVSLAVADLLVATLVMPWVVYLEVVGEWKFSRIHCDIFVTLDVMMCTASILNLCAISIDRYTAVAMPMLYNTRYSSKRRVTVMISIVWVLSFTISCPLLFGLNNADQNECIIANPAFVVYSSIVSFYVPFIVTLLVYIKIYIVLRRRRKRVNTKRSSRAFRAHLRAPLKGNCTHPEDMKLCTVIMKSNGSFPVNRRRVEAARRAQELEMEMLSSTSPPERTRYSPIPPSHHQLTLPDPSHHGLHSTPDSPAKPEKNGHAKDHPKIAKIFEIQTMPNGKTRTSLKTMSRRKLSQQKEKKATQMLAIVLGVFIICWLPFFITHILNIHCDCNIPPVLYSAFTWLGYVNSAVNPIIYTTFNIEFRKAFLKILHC

Cc1ccc(N2CCN(Cc3ccc4c(c3)NCCN4)CC2)cc1C [Example 2, 6-[4-(3,4-Dimethylphenyl)piperazin-1-ylmethyl]-1,2,3,4-tetrahydroquinoxaline]
blockade of amphetamine-stimulated locomotion (result in words) ([1]; rat, 1, 3, 10 and 30 mg/kg IP): dose-dependent blockade
ED50 ([1]; rat, PO, read-out: oral blockade of amphetamine-stimulated locomotion ED50): 5.8 mg/kg
IC50 [2]: 2940 nM
DA Synthesis in Rat Hippocampus [3]: +52% of the control values
DA Synthesis in Rat Striatum [3]: +66% of the control values
